Measurements reported in patent US8168651B2, “Protein kinase modulators” (Cylene Pharmaceuticals, Inc., priority 2008, dated 2012).

What was measured:
[1] = system: HCT-116 human colorectal carcinoma cells; assay: Cell-proliferation assay using Alamar Blue dye; type: cell-based; conditions: Homo sapiens, HCT-116, second HCT-116 column (c8); read-out: HCT-116 (uM) cell proliferation modulatory activity;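 also: cells exposed to compound for about 4 days, then Alamar Blue added and dye fluorescence read after about 4 h, compared with medium-only control wells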
MV-4-11 = assay: Cell proliferation modulatory activity, MV-4-11; type: cell-based; conditions: Homo sapiens, MV4-11; MV-4-11 cells
K-562 = assay: Cell proliferation modulatory activity, K-562; type: cell-based; conditions: Homo sapiens, K562; K-562 cells
recombinant human PIM1 = recombinant human PIM1 (Homo sapiens (Human), UniProt P11309); assay: PIM-1 kinase activity in cell-free in vitro assay; type: biochemical; conditions: cell-free assay; for inhibition at 0.5 µM: 500 nM compound, read-out: PIM-1: % inh 500 nM
recombinant human CK2 = recombinant human CK2 (Homo sapiens (Human), UniProt P68400); assay: CK2 assay (cell-free, 33P-ATP filter plate); type: biochemical; conditions: 500 nM compound, cell-free assay; read-out: CK2: % inh 500 nM
recombinant human CK2, sequence (P68400 whole entry): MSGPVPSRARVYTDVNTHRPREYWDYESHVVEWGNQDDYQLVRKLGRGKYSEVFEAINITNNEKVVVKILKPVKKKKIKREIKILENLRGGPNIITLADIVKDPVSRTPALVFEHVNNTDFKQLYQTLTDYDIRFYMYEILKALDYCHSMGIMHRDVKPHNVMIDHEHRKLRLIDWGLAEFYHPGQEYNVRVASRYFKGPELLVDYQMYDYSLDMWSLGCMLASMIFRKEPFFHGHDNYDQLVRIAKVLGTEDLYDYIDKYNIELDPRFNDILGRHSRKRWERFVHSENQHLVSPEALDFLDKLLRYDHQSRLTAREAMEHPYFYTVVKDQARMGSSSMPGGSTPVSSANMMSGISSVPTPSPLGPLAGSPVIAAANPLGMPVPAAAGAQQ
recombinant human CK2, sequence (P67870 whole entry partner): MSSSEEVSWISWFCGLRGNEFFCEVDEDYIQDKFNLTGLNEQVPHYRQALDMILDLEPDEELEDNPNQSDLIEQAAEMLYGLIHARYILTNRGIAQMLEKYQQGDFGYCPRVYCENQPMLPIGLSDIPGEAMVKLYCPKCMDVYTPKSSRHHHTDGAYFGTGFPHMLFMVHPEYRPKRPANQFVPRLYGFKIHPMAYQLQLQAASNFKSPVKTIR

recombinant human PIM1, sequence (P11309 whole entry): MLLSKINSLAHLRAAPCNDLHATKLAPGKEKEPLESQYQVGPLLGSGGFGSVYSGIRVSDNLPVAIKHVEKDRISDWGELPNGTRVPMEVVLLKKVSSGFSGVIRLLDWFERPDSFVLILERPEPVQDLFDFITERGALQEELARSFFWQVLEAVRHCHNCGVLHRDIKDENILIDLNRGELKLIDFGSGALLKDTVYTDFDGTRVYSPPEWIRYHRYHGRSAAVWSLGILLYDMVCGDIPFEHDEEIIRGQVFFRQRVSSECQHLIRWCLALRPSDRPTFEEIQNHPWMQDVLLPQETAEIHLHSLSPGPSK

Structure (SMILES) | IC50 [1] [µM] | IC50 (MV-4-11) [µM] | IC50 (K-562) [µM] | inhibition at 0.5 µM (recombinant human PIM1) [%] | IC50 (recombinant human PIM1) [µM] | inhibition at 0.5 µM (recombinant human CK2) [%]
Cc1ccccc1Nc1nc2cc(C(=O)O)ccc2c2cnc(NC3CC3)nc12 | 10 | 0.165 | 0.769 | 31.9 |  | 
O=C(O)c1ccc2c(c1)nc(N1CCc3c([nH]c4ccccc34)C1)c1ccncc12 | > 10 |  | > 10 | 38.8 |  | 
O=C(O)c1ccc2c(c1)nc(NCCn1ccnc1)c1ccncc12 | > 10 |  | > 10 | 51.8 | > 1.1 | 
Cc1nccn1CCNc1nc2cc(C(=O)O)ccc2c2cnccc12 | > 10 | > 10 | > 10 | 97.1 | 0.287 | 
O=C(O)c1ccc2c(c1)nc(NCC1CCN1Cc1ccccc1)c1ccncc12 (stereo not drawn) | > 10 |  | > 10 | -7.8 |  | 55.9
COC(=O)c1ccc2c(c1)nc(NN)c1ccncc12 | > 10 |  | > 10 | -32.4 |  | -8.65
O=C(O)c1ccc2c(c1)nc(Nc1ccn[nH]1)c1ccncc12 | > 10 |  | > 10 | 1.37 |  | 94.8
Cn1nc(C2CC2)cc1Nc1nc2cc(C(=O)O)ccc2c2cnccc12 | > 10 |  | > 10 | 45.8 |  | 96.2
CONc1nc2cc(C(=O)O)ccc2c2cnccc12 | > 10 |  | > 10 | 34.9 |  | 94.7
CON(C)c1nc2cc(C(=O)O)ccc2c2cnccc12 | > 10 |  | > 10 | 55.7 | 0.897 | 84.7
O=C(O)c1ccc2c(c1)nc(NN1CCCCC1)c1ccncc12 | > 10 |  | > 10 |  | > 1.1 | 
CN(c1ccccc1)c1nc2cc(C(=O)O)ccc2c2cnccc12 | > 10 |  | > 10 | 71.2 | 0.439 | 89
Cc1cc(Nc2nc3cc(C(=O)O)ccc3c3cnccc23)c2ccccc2n1 | > 10 |  | > 10 | 24.9 |  | 96.6
O=C(O)c1ccc2c(c1)nc(Nc1ccccc1Cl)c1ccncc12 | > 10 |  | > 10 | 70.7 | 0.372 | 97.3
O=C(O)c1ccc2c(c1)nc(N1CCc3ccccc31)c1ccncc12 | > 10 |  | > 10 | 9.63 |  | 90.2
O=C(O)c1ccc2c(c1)nc(Nc1ccccc1OC(F)(F)F)c1ccncc12 | > 10 |  | > 10 | 32.5 |  | 92
O=C(O)c1ccc2c(c1)nc(Nc1cccc(Cl)c1)c1ncccc12 | > 10 |  | > 10 | 16.7 |  | 40
O=C(O)c1ccc2c(c1)nc(Nc1ccc(F)c(Cl)c1)c1ncccc12 | > 10 |  | > 10 | -15.5 |  | 12.3
O=C(O)c1ccc2c(c1)nc(NCCNc1ccccc1)c1ccncc12 | > 10 | 0.185 | > 10 |  | 0.7 | 
CN(c1ccccc1)c1nc2cc(C(=O)O)ccc2c2cnc(N)nc12 | > 10 | > 10 | > 10 |  | 0.223 | 
COc1cc(Nc2nc3cc(C(=O)O)ccc3c3cnccc23)cc(OC)c1 | > 10 | 6.94 | > 10 | 72 | 0.152 | 99.4
N#Cc1ccc2c(c1)nc(NCC(O)c1ccccc1)c1ccsc12 (stereo not drawn) | > 10 | > 10 | > 10 | 6.38 |  | -9.58
N#Cc1ccc2c(c1)nc(NCCn1cccc1)c1ccsc12 | > 10 | > 10 | 6.07 | -25.6 |  | -22.3
CN1CCC(N(C)c2nc3cc(C#N)ccc3c3sccc23)C1 (stereo not drawn) | 4.65 | 7.87 | > 10 | -6.14 |  | -14.1
Cc1nccn1CCNc1nc2cc(C#N)ccc2c2sccc12 | > 10 | > 10 | > 10 | 8.62 |  | -15.7
